Source: patent US9981964B2 (Agency for Science, Technology and Research, priority 2013, dated 2018)

Test system: HEK293-STF3A cells
Assay: STF3A assay (STF luciferase reporter in Wnt3A-expressing HEK293 cells)
Type: cell-based
Conditions: Homo sapiens, 24 h, 1 day of treatment
In short: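 HEK293 cells carrying the STF reporter and expressing Wnt3A, seeded 2×10^4 per well overnight, then treated 1 day with compound at final 50 μM to 1.5 nM. Luciferase activity read by luminescence after Steady-Glo reagent, 10 min at room temperature.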

Structure (SMILES) | IC50 [µM]
CC(C(=O)Nc1cc(-c2cccc(Cl)c2)no1)N1CCCC2=C1C(=O)N(C)C2=O (stereo not drawn) [Compound 18, N-(3-(3-chlorophenyl)isoxazol-5-yl)-2-(6-methyl-5,7-dioxo-2,3,4,5,6,7-hexahydro-1H-pyrrolo[3,4-b]pyridin-1-yl)propanamide] | < 5
CN1C(=O)C2=C(C1=O)N(CC(=O)Nc1ccc(-c3ccccc3)cn1)CCC2 [Compound 5, 2-(6-methyl-5,7-dioxo-2,3,4,5,6,7-hexahydro-1H-pyrrolo[3,4-b]pyridin-1-yl)-N-(5-phenylpyridin-2-yl)acetamide] | < 0.1
CN1C(=O)C2=C(C1=O)N(CC(=O)Nc1ccc(-c3nccs3)cn1)CCC2 [Compound 6, 2-(6-methyl-5,7-dioxo-2,3,4,5,6,7-hexahydro-1H-pyrrolo[3,4-b]pyridin-1-yl)-N-(5-(thiazol-2-yl)pyridin-2-yl)acetamide] | < 0.1
CN1C(=O)C2=C(C1=O)N(CC(=O)Nc1cnc(-c3ccncc3)cn1)CCC2 [Compound 22, 2-(6-methyl-5,7-dioxo-2,3,4,5,6,7-hexahydro-1H-pyrrolo[3,4-b]pyridin-1-yl)-N-(5-(pyridin-4-yl)pyrazin-2-yl)acetamide] | > 10
Cc1cc(-c2cccnc2)cnc1NC(=O)CN1CCCC2=C1C(=O)N(C)C2=O [Compound 113, 2-(6-methyl-5,7-dioxo-2,3,4,5,6,7-hexahydro-1H-pyrrolo[3,4-b]pyridin-1-yl)-N-(5-methyl-[3,3′-bipyridin]-6-yl)acetamide] | > 10
CN1C(=O)C2=C(C1=O)N(CC(=O)Nc1ccc(-c3ccccc3F)nn1)CCC2 [Compound 84, N-(6-(2-fluorophenyl)pyridazin-3-yl)-2-(6-methyl-5,7-dioxo-2,3,4,5,6,7-hexahydro-1H-pyrrolo[3,4-b]pyridin-1-yl)acetamide] | < 0.1
COc1ccccc1-c1ccc(NC(=O)CN2CCCC3=C2C(=O)N(C)C3=O)nn1 [Compound 28, N-(6-(2-methoxyphenyl)pyridazin-3-yl)-2-(6-methyl-5,7-dioxo-2,3,4,5,6,7-hexahydro-1H-pyrrolo[3,4-b]pyridin-1-yl)acetamide] | > 10
Cc1nc(NC(=O)CN2CCCC3=C2C(=O)N(C2CC2)C3=O)ccc1-c1cccnc1 [Compound 125, 2-(6-cyclopropyl-5,7-dioxo-2,3,4,5,6,7-hexahydro-1H-pyrrolo[3,4-b]pyridin-1-yl)-N-(2-methyl-[3,3′-bipyridin]-6-yl)acetamide] | < 1
COc1cncc(-c2ccc(NC(=O)CN3CCCC4=C3C(=O)N(C3CC3)C4=O)nc2)c1 [Compound 147, 2-(6-cyclopropyl-5,7-dioxo-2,3,4,5,6,7-hexahydro-1H-pyrrolo[3,4-b]pyridin-1-yl)-N-(5′-methoxy-3,3′-bipyridin-6-yl)acetamide] | < 0.1
O=C(CN1CCCC2=C1C(=O)N(C1CC1)C2=O)Nc1ccc(-c2ccccc2)cc1 [Compound 67, N-([1,1′-biphenyl]-4-yl)-2-(6-cyclopropyl-5,7-dioxo-2,3,4,5,6,7-hexahydro-1H-pyrrolo[3,4-b]pyridin-1-yl)acetamide] | < 0.1
Cc1cnc(-c2ccc(NC(=O)CN3CCCC4=C3C(=O)N(C3CC3)C4=O)nc2)cn1 [Compound 157, 2-(6-cyclopropyl-5,7-dioxo-2,3,4,5,6,7-hexahydro-1H-pyrrolo[3,4-b]pyridin-1-yl)-N-(5-(5-methylpyrazin-2-yl)pyridin-2-yl)acetamide] | < 0.1
O=C(CN1CCCC2=C1C(=O)N(C1CC1)C2=O)Nc1ccc(-c2cccnc2F)cn1 [Compound 104, 2-(6-cyclopropyl-5,7-dioxo-2,3,4,5,6,7-hexahydro-1H-pyrrolo[3,4-b]pyridin-1-yl)-N-(2′-fluoro-[3,3′-bipyridin]-6-yl)acetamide] | < 0.1
Cc1cncc(-c2ncc(NC(=O)CN3CCCC4=C3C(=O)N(C3CC3)C4=O)cc2C)c1 [Compound 68, 2-(6-cyclopropyl-5,7-dioxo-2,3,4,5,6,7-hexahydro-1H-pyrrolo[3,4-b]pyridin-1-yl)-N-(3,5′-dimethyl-[2,3′-bipyridin]-5-yl)acetamide] | < 0.1
CN1C(=O)C2=C(C1=O)N(CC(=O)Nc1ccc(-c3cncnc3)cc1)CCC2 [Compound 75, 2-(6-methyl-5,7-dioxo-2,3,4,5,6,7-hexahydro-1H-pyrrolo[3,4-b]pyridin-1-yl)-N-(4-(pyrimidin-5-yl)phenyl)acetamide] | < 0.1
COc1cc(NC(=O)CN2CCCC3=C2C(=O)N(C)C3=O)ccc1-c1ccccc1 [Compound 99, N-(2-methoxy-[1,1′-biphenyl]-4-yl)-2-(6-methyl-5,7-dioxo-2,3,4,5,6,7-hexahydro-1H-pyrrolo[3,4-b]pyridin-1-yl)acetamide] | < 10
O=C(CN1CCCC2=C1C(=O)N(C1CC1)C2=O)Nc1ccc(-c2ccc(F)cn2)cn1 [Compound 127, 2-(6-cyclopropyl-5,7-dioxo-2,3,4,5,6,7-hexahydro-1H-pyrrolo[3,4-b]pyridin-1-yl)-N-(5-fluoro-[2,3′-bipyridin]-6′-yl)acetamide] | < 0.1
Cc1ccncc1-c1ccc(NC(=O)CN2CCCC3=C2C(=O)N(C2CC2)C3=O)cn1 [Compound 138, 2-(6-cyclopropyl-5,7-dioxo-2,3,4,5,6,7-hexahydro-1H-pyrrolo[3,4-b]pyridin-1-yl)-N-(4′-methyl-2,3′-bipyridin-5-yl)acetamide] | < 1

Structure (SMILES) | IC50 [µM]
Cc1cc(NC(=O)CN2CCCC3=C2C(=O)N(C2CC2)C3=O)ncc1-c1cccnc1 [Compound 120, 2-(6-cyclopropyl-5,7-dioxo-2,3,4,5,6,7-hexahydro-1H-pyrrolo[3,4-b]pyridin-1-yl)-N-(4-methyl-[3,3′-bipyridin]-6-yl)acetamide] | < 1
CN1C(=O)C2=C(C1=O)N(CC(=O)Nc1ccc(-c3ccc(F)nc3)nn1)CCC2 [Compound 46, N-(6-(6-fluoropyridin-3-yl)pyridazin-3-yl)-2-(6-methyl-5,7-dioxo-2,3,4,5,6,7-hexahydro-1H-pyrrolo[3,4-b]pyridin-1-yl)acetamide] | < 0.1
O=C(CN1CCCC2=C1C(=O)N(C1CC1)C2=O)Nc1ccc(-c2ccc(F)nc2)nn1 [Compound 69, 2-(6-cyclopropyl-5,7-dioxo-2,3,4,5,6,7-hexahydro-1H-pyrrolo[3,4-b]pyridin-1-yl)-N-(6-(6-fluoropyridin-3-yl)pyridazin-3-yl)acetamide] | < 0.1
C[C@@H](C(=O)Nc1ccc(-c2ccccc2)nn1)N1CCCC2=C1C(=O)N(C)C2=O (single isomer, unassigned) [Compound 94] | < 0.1
Cc1nc(-c2ccc(NC(=O)CN3CCCC4=C3C(=O)N(C3CC3)C4=O)nc2)cs1 [Compound 15, 2-(6-cyclopropyl-5,7-dioxo-2,3,4,5,6,7-hexahydro-1H-pyrrolo[3,4-b]pyridin-1-yl)-N-(5-(2-methylthiazol-4-yl)pyridin-2-yl)acetamide] | < 0.1
CC(C(=O)Nc1cc(F)c(-c2cccnc2)cn1)N1CCCC2=C1C(=O)N(C)C2=O (stereo not drawn) [Compound 119, N-(4-fluoro-3,3′-bipyridin-6-yl)-2-(6-methyl-5,7-dioxo-2,3,4,5,6,7-hexahydro-1H-pyrrolo[3,4-b]pyridin-1-yl)propanamide] | < 0.1
O=C(CN1CCCC2=C1C(=O)N(C1CC1)C2=O)Nc1cnc(-c2cncc(F)c2)cn1 [Compound 142, 2-(6-cyclopropyl-5,7-dioxo-2,3,4,5,6,7-hexahydro-1H-pyrrolo[3,4-b]pyridin-1-yl)-N-(5-(5-fluoropyridin-3-yl)pyrazin-2-yl)acetamide] | < 0.1
O=C(CN1CCCC2=C1C(=O)N(C1CC1)C2=O)Nc1ccc(-c2cccnc2F)nc1 [Compound 135, 2-(6-cyclopropyl-5,7-dioxo-2,3,4,5,6,7-hexahydro-1H-pyrrolo[3,4-b]pyridin-1-yl)-N-(2′-fluoro-2,3′-bipyridin-5-yl)acetamide] | < 0.1
CN1C(=O)C2=C(C1=O)N(CC(=O)Nc1ccc(-c3cnccn3)cc1)CCC2 [Compound 118, 2-(6-methyl-5,7-dioxo-2,3,4,5,6,7-hexahydro-1H-pyrrolo[3,4-b]pyridin-1-yl)-N-(4-(pyrazin-2-yl)phenyl)acetamide] | < 0.1
Cc1ccccc1-c1ccc(NC(=O)CN2CCCC3=C2C(=O)N(C)C3=O)nn1 [Compound 27, 2-(6-methyl-5,7-dioxo-2,3,4,5,6,7-hexahydro-1H-pyrrolo[3,4-b]pyridin-1-yl)-N-(6-(o-tolyl)pyridazin-3-yl)acetamide] | < 1
O=C(CN1CCCC2=C1C(=O)N(C1CC1)C2=O)Nc1ccc(-c2cncc(Cl)c2)nn1 [Compound 58, N-(6-(5-chloropyridin-3-yl)pyridazin-3-yl)-2-(6-cyclopropyl-5,7-dioxo-2,3,4,5,6,7-hexahydro-1H-pyrrolo[3,4-b]pyridin-1-yl)acetamide] | < 0.1
COc1cncc(-c2ccc(NC(=O)CN3CCCC4=C3C(=O)N(C3CC3)C4=O)nn2)c1 [Compound 153, 2-(6-cyclopropyl-5,7-dioxo-2,3,4,5,6,7-hexahydro-1H-pyrrolo[3,4-b]pyridin-1-yl)-N-(6-(5-methoxypyridin-3-yl)pyridazin-3-yl)acetamide] | < 0.1
CN1C(=O)C2=C(C1=O)N(CC(=O)Nc1ccc(-c3ccc(F)cc3)cn1)CCC2 [Compound 7, N-(5-(4-fluorophenyl)pyridin-2-yl)-2-(6-methyl-5,7-dioxo-2,3,4,5,6,7-hexahydro-1H-pyrrolo[3,4-b]pyridin-1-yl)acetamide] | < 0.1
CN1C(=O)C2=C(C1=O)N(CC(=O)Nc1ccc(-c3cccc(F)c3)nc1)CCC2 [Compound 154, N-(6-(3-fluorophenyl)pyridin-3-yl)-2-(6-methyl-5,7-dioxo-2,3,4,5,6,7-hexahydro-1H-pyrrolo[3,4-b]pyridin-1-yl)acetamide] | < 0.1
O=C(CN1CCCC2=C1C(=O)N(C1CC1)C2=O)Nc1ccc(-c2cncc(C(F)F)c2)nn1 [Compound 61] | < 0.1
CN1C(=O)C2=C(C1=O)N(CC(=O)Nc1ccc(-c3ccncc3)cn1)CCC2 [Compound 88, N-([3,4′-bipyridin]-6-yl)-2-(6-methyl-5,7-dioxo-2,3,4,5,6,7-hexahydro-1H-pyrrolo[3,4-b]pyridin-1-yl)acetamide] | < 1
